Experimental data taken from US20120088803A1, “CONTROL AGENT FOR SOFT ROT AND CONTROL METHOD FOR THE SAME” (Ishihara Sangyo Kaisha, Ltd, priority 2009, published 2012).
Where “and” joins values, the source holds several entries; their conditions need not be identical. Identical values can stand only once.

Experiments:
Chinese cabbage soft rot [1] = assay: Test for disease control of Chinese cabbage, field (Example 2); assay type: in vivo, Erwinia carotovora; parameters: key to Disease incidence rate: % of examined plants that are diseased; key to Disease control value: (1 − severity treated/severity untreated) × 100; key to Disease severity: Σ(diseased plants per class × index 0-4)/(plants × 4) × 100; conditions: 250 g ai/10 a, 50 days
From the text: (§1) (Disease incidence rate)=[(number of diseased plants)/(number of plants examined)]*100
(§2) (Disease severity)={S [(number of diseased plants in each class into which the plants are classified according to the degree of disease)*(disease index)]/[(number of plants examined)*4]}*100
(§3) (Disease control value)={1-[(Disease severity in treated plot)/(Disease severity in untreated plot)]}*100
(§4) Incidentally, the evaluation criteria for the disease index are as follows. • (Disease index) • 0: No lesion • 1: Lesions appear only in part of outer leaves (shipment can be made). • 2: Lesions appear in outer leaves and part of head leaves (the damaged part is removed and shipment as a small size plant can be made, rated Grade B). • 3: Lesions appear in most head leaves or more (shipment cannot be made). • 4: Lesions appear in the entire plant and the plant dies.
Preparation was performed using 500 g/L of • 3-chloro-N-(3-chloro-5-trifluoromethyl-2-pyridyl)-alpha,alpha,alpha-trifluoro-2,6-dinit ro-p-toluidine (fluazinam, Frowncide SC (trade name), manufactured by Ishihara Sangyo Kaisha, Ltd.) such that the amount of the active ingredient was 250 g ai/10 a (500 mL product/10 a), and the amount of dilution water was 150 L/10 a.
A mulch-sheet for agricultural use was spreaded on soil, and planting holes for settlement (diameter: about 5 cm) were made, and then, the spray solution prepared in the above was sprayed onto the planting holes such that the spraying amount was 0.25 g/m^2 (150 L/10 a), followed by air-drying. Then, seedlings of Chinese cabbage (cultivar: Yumebuki) grown for 4 weeks in a cell tray (128 holes/nursery box) were planted such that 34 to 40 seedlings were planted in one test plot having an area of 4.8 m^2 with three replications.
(§5) The degree of disease incidence was examined for all the plants in each test plot 50 days after the start of the test, and the disease severity and the disease control value were evaluated. Incidentally, the disease severity and the disease control value were obtained in the same manner as described above.

Chinese cabbage soft rot [2] = assay: Test for disease control of Chinese cabbage, field (Example 4 / Comparative example 3); assay type: in vivo, Erwinia carotovora; parameters: key to Disease incidence rate: % of examined plants diseased; key to Disease control value: (1 − treated/untreated severity)×100; 100 = full control; key to Disease severity: severity index 0–100 from disease classes 0–4 (sum/(plants×4)×100); conditions: for Disease incidence rate / Disease severity / Disease control value: 64 days; for Disease control value: vs untreated plot
From the text: as §1, §2, §3, §4
Preparation was performed using 500 g/L of 3-chloro-N-(3-chloro-5-trifluoromethyl-2-pyridyl)-alpha,alpha,alpha-trifluoro-2,6-dinit ro-p-toluidine (fluazinam, Frowncide SC (trade name), manufactured by Ishihara Sangyo Kaisha, Ltd.) such that the amount of the active ingredient was 62.5 g ai/10 a (125 mL product/10 a), 125 g ai/10 a (250 mL product/10 a), and 250 g ai/10 a (500 mL product/10 a), and each amount of dilution water was 150 L/10 a.
A mulch-sheet for agricultural use was spreaded on soil, and planting holes for settlement (diameter: about 5 cm) were made, and then, the spray solution prepared in the above was sprayed onto the planting holes such that the amount of treated active ingredient was 0.0625 g/m^2 (150 L/10 a) in the case of the spray solution containing the active ingredient at 62.5 g ai/10 a, 0.125 g/m^2 (150 L/10 a) in the case of the spray solution containing the active ingredient at 125 g ai/10 a, and 0.25 g/m^2 (150 L/10 a) in the case of the spray solution containing the active ingredient at 250 g ai/10 a, followed by air-drying. Then, seedlings of Chinese cabbage (cultivar: Harebutai 65) grown for 4 weeks in a cell tray (128 holes/nursery box) were planted such that 19 seedlings were planted in one test plot having an area of 2.4 m^2 with two replications.
Preparation was performed by diluting streptomycin (Mycin 20 wettable powder (trade name), manufactured by Hokko Chemical Industry Co., Ltd.) with water to 1/1000.
In a field covered with a mulch-sheet for agricultural use, seedlings of Chinese cabbage (cultivar: Harebutai 65) grown in a cell tray were planted, in the same manner as in Example 4, and foliage application was performed with a sprayer by spraying the spray solution of streptomycin prepared in (1) (spraying amount per application: 300 L/10 a) twice (27 days and 48 days after the planting of the seedlings).
as §5, with “64” for “50”

[3] = test system: Erwinia carotovora (potato Erwinia carotovora); assay: Test for growth inhibition of potato Erwinia carotovora (PSA medium plate); assay type: cell-based; conditions: for Growing state of Erwinia carotovora (formed colonies): PSA medium, 25 degrees C., 4 days, two plates per cell
Experimental: Reference test example: Test for growth inhibition of potato Erwinia carotovora
A test for growth inhibition of Erwinia carotovora in the case of direct application of the control agent to Erwinia carotovora was performed. To previously melted PSA medium (55 degrees C.), a predetermined amount of a pesticide 3-chloro-N-(3-chloro-5-trifluoromethyl-2-pyridyl)-alpha,alpha,alpha-trifluoro-2,6-dinit ro-p-toluidine (fluazinam, Frowncide SC (trade name), manufactured by Ishihara Sangyo Kaisha, Ltd.), ethaboxam wettable powder (Ethaboxam, Gardian (trade name), manufactured by LG Chemical), or streptomycin (Mycin wettable powder (trade name), manufactured by Hokko Chemical Industry Co., Ltd.) and a suspension of Erwinia carotovora (potato Erwinia carotovora) were added and the resulting mixture was stirred well, and then, poured in a plate. Then, the plate was cultured at 25 degrees C. for 4 days, and the growing state of Erwinia carotovora was examined. Thereafter, the formed colonies were examined according to the following three criteria. • +: Equal to the colonies of the untreated group • Plus or minus: Apparently less than the colonies of the untreated group • −: Almost no colonies

[4] = 150 L/10 a onto planting holes, Yumebuki, Average of replications
[5] = 62.5 g ai/10 a, 150 L/10 a onto planting holes, Harebutai 65, Average
[6] = 125 g ai/10 a, 150 L/10 a onto planting holes, Harebutai 65, Average
[7] = 250 g ai/10 a, 150 L/10 a onto planting holes, Harebutai 65, Average
[8] = 250 g ai/10 a, 150 L/10 a onto planting holes, Harebutai 65, single replications I-II
[9] = 1/1000 dilution, foliage application twice, Harebutai 65, Average

For `O=[N+]([O-])c1cc(C(F)(F)F)c(Cl)c([N+](=O)[O-])c1Nc1ncc(C(F)(F)F)cc1Cl` [Fluazinam, 3-chloro-N-(3-chloro-5-trifluoromethyl-2-pyridyl)-alpha,alpha,alpha-trifluoro-2,6-dinit ro-p-toluidine], the Disease incidence rate (Chinese cabbage soft rot [1]; [4]) was 45.4, the Disease severity (Chinese cabbage soft rot [1]; [4]) was 16.4 and the Disease severity (Chinese cabbage soft rot [1]; 150 L/10 a onto planting holes, Yumebuki, single replications I-III) was 19.4 and 13.1 and 16.7. The Disease control value (Chinese cabbage soft rot [1]; 150 L/10 a onto planting holes, Yumebuki, vs untreated plot) was 66.4, the Disease incidence rate (Chinese cabbage soft rot [1]; 150 L/10 a sprayed onto planting holes of mulch-sheet, cultivar Yumebuki, single replications I-III) was 55.0 and 37.5 and 43.6 and the Disease incidence rate (Chinese cabbage soft rot [2]; [5]) was 44.7. The Disease severity (Chinese cabbage soft rot [2]; [5]) was 13.8, the Disease severity (Chinese cabbage soft rot [2]; 62.5 g ai/10 a, 150 L/10 a onto planting holes, Harebutai 65, single replications I-II) was 9.2 and 18.4 and the Disease control value (Chinese cabbage soft rot [2]; 62.5 g ai/10 a, 150 L/10 a onto planting holes, Harebutai 65) was 56.3. The Disease incidence rate (Chinese cabbage soft rot [2]; 62.5 g ai/10 a, 150 L/10 a onto planting holes, cultivar Harebutai 65, single replications I-II) was 36.8 and 52.6, the Disease incidence rate (Chinese cabbage soft rot [2]; [6]) was 36.1 and the Disease severity (Chinese cabbage soft rot [2]; [6]) was 10.5. It also gave a Disease control value (Chinese cabbage soft rot [2]; 125 g ai/10 a, 150 L/10 a onto planting holes, Harebutai 65) of 66.8, a Disease incidence rate (Chinese cabbage soft rot [2]; [7]) of 31.2 and a Disease severity (Chinese cabbage soft rot [2]; [7]) of 8.5. The Disease incidence rate (Chinese cabbage soft rot [2]; [8]) was 23.5 and 38.9, the Disease severity (Chinese cabbage soft rot [2]; [8]) was 5.9 and 11.1 and the Disease control value (Chinese cabbage soft rot [2]; 250 g ai/10 a, 150 L/10 a onto planting holes, Harebutai 65) was 73.1. For the same molecule, the “Control effect on Chinese cabbage soft rot compared with foliage application of streptomycin (in words)” value (Chinese cabbage soft rot [2]; Table 4 test, moderate incidence conditions, even at 62.5 g ai/10 a or 125 g ai/10 a) was “a higher control effect”, the “Growing state of Erwinia carotovora (formed colonies)” value (“Growing state of Erwinia carotovora” below) ([3]; Active ingredient concentration 100 ppm) was “+, +” and the “Growing state of Erwinia carotovora” value ([3]; Active ingredient concentration 500 ppm) was “+, +”. For the same molecule, the “Growing state of Erwinia carotovora” value ([3]; Active ingredient concentration 1000 ppm) was “±, ±” and the “Growth inhibition of Erwinia carotovora (in words)” value ([3]; active ingredient concentration of 1000 ppm, direct application) was “did not inhibit the growth”.

With `[H]/N=C(/N)N[C@H]1[C@H](O)[C@@H](O)[C@H](O[C@@H]2O[C@@H](C)[C@](O)(C=O)[C@H]2O[C@@H]2O[C@@H](CO)[C@H](O)[C@@H](O)[C@@H]2NC)[C@@H](N/C(N)=N\[H])[C@@H]1O` [Streptomycin, streptomycin] the Disease incidence rate (Chinese cabbage soft rot [2]; 1/1000 dilution, foliage application 300 L/10 a twice (27 and 48 days), Harebutai 65, single replications I-II) was 44.4 and 63.2, the Disease incidence rate (Chinese cabbage soft rot [2]; [9]) was 53.8 and the Disease severity (Chinese cabbage soft rot [2]; [9]) was 14.9. For the same molecule, the Disease severity (Chinese cabbage soft rot [2]; 1/1000 dilution, foliage application twice, Harebutai 65, single replications I-II) was 13.9 and 15.8, the Disease control value (Chinese cabbage soft rot [2]; 1/1000 dilution, foliage application twice, Harebutai 65) was 52.8 and the “Growing state of Erwinia carotovora” value ([3]; Active ingredient concentration 1 ppm) was “−, −”. For the same molecule, the “Growing state of Erwinia carotovora” value ([3]; Active ingredient concentration 10 ppm) was “−, −”.
